Measurements taken from paper PMC8861638, “Human iPSC-derived renal organoids engineered to report oxidative stress can predict drug-induced toxicity” (iScience, 2022).
Several values for one entry are separate records, joined by “and”; a condition that tells them apart may be missing. Equal entries are not always repeated. Where two headings read alike, the source gives them in different places.

How the values were obtained:
[1] = tested on: hiPSC-derived renal organoids; format: cell-based, human
From the text: We also stained drug-treated organoids for HMOX1 together with LTL and COL IV (Figure S3A), or JAG1 (Figure S3B), to test whether the response is localized to a specific cell type in the organoid. […] The general increase in HMOX1 expression in response to the toxic drugs, rather than specific response in proximal tubular cells, the primary site of toxicity of both drugs, could be due to the availability of the drug to all cell types of the organoid through the media in contrast to what happens in vivo where these drugs filter through the glomeruli then specifically accumulate inside the proximal tubular cells, through apical uptake pathways, where most of their toxic effect is seen.
The culture medium was aspirated, cells washed once in PBS, then fixed in 4% PFA in PBS for 15 minutes at room temperature, followed by three PBS washes of 3 min each. Cells were permeabilised and blocked for 1 hour (2% BSA, 0.3% Triton x100 in PBS). Cells were washed in PBS and incubated with primary antibodies overnight at 4 °C. Cells were washed in PBS (3x, 15 min) and incubated with secondary antibodies for 2 hrs at room temperature. Cells were washed in PBS (3x, 15 minutes) before imaging in PBS in the wells. Images were taken using a Zeiss Axiovert fluorescence microscope. […]

[2] = tested on: flat and 3D HO1-mCherry-hiPSC-derived organoids; test: HMOX1 qPCR in the blind-coded screen, flat and 3D organoids, 24h; format: cell-based, human; settings: highest concentration 384µM
Experimental: A one-way ANOVA on repeated measures was performed. […]
mCherry insertion without hydrogen peroxide treatment. B) Single mCherry-positive cells were sorted into each well of 96-well plates as shown in the right panel to isolate clonal populations. Negative (wild type) cells are shown in the left panel. C) Diagram of the primers designed for verifying cassette insertion into the hiPSC genome. D) PCR products using primer pair 1 and 4 shown in C) - endogenous […]
Figure S5. HMOX1 expression in flat and 3D HO1-mCherry-hiPSC-derived flat and 3D organoids by qPCR fold-change analysis, Related to Figure 6.
HMOX1 expression fold-change compared to vehicle control in flat (white) and 3D […]

[3] = tested on: HO1-mCherry-hiPSC-derived 3D renal organoids; test: Blind-coded screen, mCherry fluorescence of HMOX1 reporter in 3D organoids
Experimental: (§1) H O 1-mCherry-hiPSC renal organoids (both flat and 3D) were incubated in a 4-fold dilution series of each compound for either 24 h or 72 h. Data on reporter expression are shown graphically in Figure 5.
(§2) A four-fold dilution series of each blinded compound (lyophilized, obtained from the Gothenburg authors) was prepared and HO1-mCherry-hiPSC-derived renal organoids (flat and 3D) were incubated in these dilutions for either 24h or 72h (Figure 5). A no-treatment control was included for each compound, time-point and organoid type (flat or 3D). 24h flat organoids were cultured in 4 x wells of a 24-well plate; 72h flat organoids in wells of a 96-well plate and 3D organoids on transwell inserts.
(§3) Fluorescence measurements were taken after 24h or 72h. Each live organoid was imaged either 5 times with 4 replicates (flat organoids, 24h), once with 10 replicates (flat organoids, 72h), once with 3 replicates (3D organoids, 24h) or 3 times with 3 replicates (3D organoids, 72h). Organoids were imaged using a Zeiss Axiovert microscope with Axiovision software. All images used for fluorescence intensity analysis were taken with identical exposures and settings. All images were analysed using ImageJ. The total fluorescence intensity of the image was multiplied by the total area with a signal between 600 (lower threshold) and 4096 (higher threshold), where 0 is completely black and 4096 is completely white. Thus, only signal above a certain threshold is measured in order to discount very dark areas with no cells.
(§4) In graphs, a single star indicates a p value of the null hypothesis being true of less than 0.05, two stars a p value of less than 0.01 and 3 stars a p value of less than 0.001. Calculation of the overall performance of the assay (in the Discussion section) was performed by calculating the Wilson Score Interval method ([Newcombe, 1998]).

[4] = tested on: HO1-mCherry-hiPSC-derived flat renal organoids; test: Blind-coded screen, mCherry fluorescence of HMOX1 reporter in flat organoids
Experimental: as §1, §2, §3, §4

[5] = tested on: hiPSC-derived flat renal organoids; test: RNA-seq of wild-type hiPSC-derived flat renal organoids treated with gentamicin for 24 h; format: cell-based, human
From the text: Although some transporters were more strongly expressed in the 3D organoids, the presence of Megalin and Cubulin in the flat organoids, combined with their increased suitability for high-throughput analyses, led us to adopt this form of organoid to identify a potential reporter for toxic insults in renal organoids. hiPSCs were differentiated into flat renal organoids, and their renal identity was verified by confirming expression of common renal markers (as described above and in the Methods section). We treated these flat renal organoids for 24 h with the known nephrotoxicant, gentamicin ([Regec et al., 1986], [1989]; [El Mouedden et al., 2000]), at 1 or 4 mg/mL, leaving some as vehicle-only controls (3 separate organoids per condition). Gentamicin was chosen based on the presence of Megalin and Cubulin in these organoids because they are the main endocytic receptors involved in gentamicin uptake into proximal tubule cells ([Schmitz et al., 2002]) and would be expected to be necessary for a realistic toxic response. The transcriptomes of renal organoids in these three conditions were compared using RNA-seq analyses.
In contrast, treatment with 4 mg/mL gentamicin caused the expression of 2,221 genes to increase and that of 1770 to decrease. Among the transcripts showing increased expression was KIM-1 (log fold-change: 1.67; FDR-corrected p = 0.03), a biomarker commonly associated with renal tubular necrosis (Table S1).
RNA-seq, and trimming, filtering and normalization of raw data, was performed by Edinburgh Genomics. 1 μg of total RNA/sample was used for sequencing library preparation using an Illumina TruSeq stranded mRNA kit. Sequencing was performed using a Novaseq S1 50 Paired-end run to produce 50–64 million read-pairs per sample. Reads were trimmed using Cutadapt and were aligned to the Homo sapiens reference genome (GRCh38; from Ensembl) using STAR. […] Reads were assigned to features of type ‘exon’ in the input annotation grouped by gene_id in the reference genome using Feature Counts. […] Reads were normalised using the weighted trimmed mean of M-values method. […]

[6] = tested on: HO1-mCherry-hiPSC-derived flat renal organoids; test: Verification of reporter response in flat organoids to known nephrotoxicants (fluorescence, qPCR); format: cell-based, human; settings: increasing amounts of compound
Experimental: Total RNA was isolated from organoids using the Qiagen RNeasy mini kit. Flat organoids were dissociated and processed as per the kit protocol. 3D organoids were lysed using the lysis buffer provided in the kit and then passed through a needle to fully dissociate before continuing with the kit protocol. RNA was stored at −80 °C until use. cDNA for qPCR was prepared using 2μg RNA and cDNA for RT-PCR was prepared using 1μg of RNA. All cDNA was quality-controlled by PCR using intron-spanning primers for β-actin on cDNA, prepared with or without reverse transcriptase (primers in Table S4). RT-PCRs for OAT1 (SLC22A6) and OCT2 (SLC22A2) were carried out in multiplex reactions with primers for β-actin as loading controls (primers in Table S4). qPCRs on undifferentiated and flat organoids for HMOX1 with HPRT1 as internal control were performed using TaqMan reagents as per published protocols (Applied Biosystems, assay nos. in Table S4). For qPCRs in the blind-coded screen, quality-controlled cDNA was provided by the Edinburgh authors to the Gothenburg authors. […] The reaction was prepared via Beckman NX and measured on Applied Biosystems QuantStudio 7 Real-Time PCR System.Technical triplicates served to calculate CT mean for each gene. The ΔCT between the target gene and the mean CT of the two reference genes was calculated for each biological replicate. […]

[7] = tested on: undifferentiated HO1-mCherry-hiPSCs; settings: 0, 125, or 250 μM for 24 h
Experimental: RNA was stored at −80 °C until use. cDNA for qPCR was prepared using 2μg RNA and cDNA for RT-PCR was prepared using 1μg of RNA. […] 12 ng of cDNA was utilized for each qPCR reaction. TaqMan gene expression assays (Applied Biosystems, TaqMan Gene Expression FAST Master Mix) were performed on HMOX1 and house-keeping genes HPRT and RPLP0. The reaction was prepared via Beckman NX and measured on Applied Biosystems QuantStudio 7 Real-Time PCR System.Technical triplicates served to calculate CT mean for each gene. The ΔCT between the target gene and the mean CT of the two reference genes was calculated for each biological replicate. The mean ΔCT of biological triplicates was normalized to untreated sample resulting in 2^ΔΔCT. […] A one-way ANOVA on repeated measures was performed. Significant fold-change was established by Dunnett's multiple comparisons test.

[8] = 3D organoids, 24 h and 72 h, 4-fold dilution series
[9] = flat organoids, 24 h and 72 h, 4-fold dilution series

## N.N.[Cl][Pt][Cl] [Cisplatin]
[1]
  HMOX1 expression by immunostaining: HMOX1 expression increased
[2]
  Cell death (no cDNA obtained): massive cell death
[3]
  Reporter fluorescence response compared to vehicle control: significant increase in fluorescence
  Tubular structure of treated organoids: distinct loss of tubular structure
[4]
  Reporter fluorescence response compared to vehicle control: significant increase in fluorescence

## Nc1ccn(C[C@@H](CO)OCP(=O)(O)O)c(=O)n1 [Cidofovir]
[3]; 3D 24h
  Prediction of toxicity by increase in fluorescence intensity: Y
[3]; 3D 72h
  Prediction of toxicity by increase in fluorescence intensity: N
[3]; 3D organoids, 24 h
  Reporter fluorescence response compared to vehicle control: showed a response after 24 h treatment
[3]; 3D organoids, 72 h
  Reporter fluorescence response compared to vehicle control: not after 72 h
[4]; Flat 24h
  Prediction of toxicity by increase in fluorescence intensity: N
[4]; Flat 72h
  Prediction of toxicity by increase in fluorescence intensity: Y
[4]; flat organoids, 24 h
  Reporter fluorescence response compared to vehicle control: no significant response
[4]; flat organoids, 72 h
  Reporter fluorescence response compared to vehicle control: elicited a response at even the lowest concentration tested

## COc1ccc(C[C@H](N)C(=O)N[C@H]2[C@@H](O)[C@H](n3cnc4c(N(C)C)ncnc43)O[C@@H]2CO)cc1 [Puromycin]
[3]; human
  Reporter fluorescence response compared to vehicle control: significant rise in fluorescence after both 24 and 72 h
[4]; human
  Reporter fluorescence response compared to vehicle control: significant rise in fluorescence after both 24 and 72 h

## O=P1(NCCCl)OCCCN1CCCl (stereo not drawn) [Ifosfamide]
[3]; 3D 24h
  Prediction of toxicity by increase in fluorescence intensity: Y
[3]; 3D 72h
  Prediction of toxicity by increase in fluorescence intensity: Y
[3]; [8]
  Reporter fluorescence response compared to vehicle control: significant fluorescence increase
[4]; Flat 24h
  Prediction of toxicity by increase in fluorescence intensity: Y
[4]; Flat 72h
  Prediction of toxicity by increase in fluorescence intensity: Y
[4]; [9]
  Reporter fluorescence response compared to vehicle control: significant fluorescence increase

## C[C@@H]1C[C@H]2[C@@H]3CCC4=CC(=O)C=C[C@]4(C)[C@@]3(F)[C@@H](O)C[C@]2(C)[C@@]1(O)C(=O)CO [Dexamethasone]
[3]; 3D 24h
  Prediction of toxicity by increase in fluorescence intensity: N
[3]; 3D 72h
  Prediction of toxicity by increase in fluorescence intensity: N
[3]; 3D organoids
  Prediction of toxicity, combination of 24 and 72 h (Boolean OR): did not predict toxicity
[3]; [8]
  Reporter fluorescence response compared to vehicle control: none of the concentrations produced a signal statistically different
[4]; Flat 24h
  Prediction of toxicity by increase in fluorescence intensity: N
[4]; Flat 72h
  Prediction of toxicity by increase in fluorescence intensity: N
[4]; [9]
  Reporter fluorescence response compared to vehicle control: none of the concentrations produced a signal statistically different

## CNC(C)C1CCC(N)C(OC2C(N)CC(N)C(OC3OCC(C)(O)C(NC)C3O)C2O)O1 (stereo not drawn) [Gentamicin]
[5]; 4 mg/mL vs control, 24 h
  Log2FC HMOX1: 6.552 and 6.55
[5]; data not shown
  Expression of CLU in RNA-seq: not up-regulated
  Expression of NGAL in RNA-seq: downregulated
[1]; human
  HMOX1 expression by immunostaining: HMOX1 expression increased
[6]
  mCherry fluorescence intensity (fold-change relative to vehicle control): increased in a dose-dependent manner
[3]
  Prediction of toxicity by increase in fluorescence intensity: Y
  Tubular structure of treated organoids: maintained their tubular structures
[3]; human, 24 h
  Low concentration to which organoids responded (fluorescence): 6 µM
[4]; human, 24 h
  Low concentration to which organoids responded (fluorescence): 2 4 μM

## OO [hydrogen peroxide]
[7]
  HMOX1 transcripts by qPCR: increase in HMOX1 transcripts
  mCherry fluorescence: increased in a dose-dependent manner

## CC(C(=O)O)c1cccc(C(=O)c2ccccc2)c1 (stereo not drawn) [Ketoprofen]
[3]; 3D 24h
  Prediction of toxicity by increase in fluorescence intensity: N
[3]; 3D 72h
  Prediction of toxicity by increase in fluorescence intensity: N
[3]; 3D organoids, 72 h
  Reporter fluorescence response compared to vehicle control: only at the highest concentration after 72 h
[4]; Flat 24h
  Prediction of toxicity by increase in fluorescence intensity: Y
[4]; Flat 72h
  Prediction of toxicity by increase in fluorescence intensity: Y
[4]; [9]
  Reporter fluorescence response compared to vehicle control: significant response in the flat cultures at the two highest concentrations
